US20240383905A1, “FGFR INHIBITORS AND METHODS OF USE THEREOF” (3H PHARMACEUTICALS CO., LTD., priority 2021, published 2024)
Where two headings read alike, the source gives them in different places.

How the values were obtained:
[1] = molecular target: T1, FGFR3 (Homo sapiens, UniProt P22607); assay: FGFR3 Biochemical Caliper Assay (KinEASE-TK kit); settings: ratio FGFR3/FGFR2 of the biochemical assay
T1 construct: purchased Carna 08-135
How it was run: (§1)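 KinEASE-TK HTRF readout: enzyme at 0.2 nM (FGFR1, FGFR3) preincubated 10 min at RT with 10-point 3-fold compound dilutions before TK-substrate/ATP start.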

[2] = test system: SNU16 cells; assay: SNU16 Cancer Cell Line Proliferation Assay (CellTiter-Glo); assay type: cell-based
How it was run: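 SNU16 cells at 5000/well exposed to 9-point 3-fold serial compound dilutions (DMSO control) for 72 h at 37 °C, 5% CO2. Viability read by luminescence; IC50 calculated from dose-response.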

[3] = molecular target: T2, FGFR1 (Homo sapiens, UniProt P11362); assay: FGFR1 Biochemical Caliper Assay (KinEASE-TK kit); settings: ratio FGFR1/FGFR2 of the biochemical assay
T2 construct: purchased Carna 08-133
How it was run: as §1

[4] = molecular target: T3, FGFR2 (Homo sapiens, UniProt P21802); assay: FGFR2 Biochemical Caliper Assay (KinEASE-TK kit); settings: 0.07 nM FGFR2; compound incubated with protein 10 min, reaction 45 min at RT; read-out: FGFR2 Cliper IC50
T3 construct: purchased Carna 08-134
T3 sequence (P21802 22-821): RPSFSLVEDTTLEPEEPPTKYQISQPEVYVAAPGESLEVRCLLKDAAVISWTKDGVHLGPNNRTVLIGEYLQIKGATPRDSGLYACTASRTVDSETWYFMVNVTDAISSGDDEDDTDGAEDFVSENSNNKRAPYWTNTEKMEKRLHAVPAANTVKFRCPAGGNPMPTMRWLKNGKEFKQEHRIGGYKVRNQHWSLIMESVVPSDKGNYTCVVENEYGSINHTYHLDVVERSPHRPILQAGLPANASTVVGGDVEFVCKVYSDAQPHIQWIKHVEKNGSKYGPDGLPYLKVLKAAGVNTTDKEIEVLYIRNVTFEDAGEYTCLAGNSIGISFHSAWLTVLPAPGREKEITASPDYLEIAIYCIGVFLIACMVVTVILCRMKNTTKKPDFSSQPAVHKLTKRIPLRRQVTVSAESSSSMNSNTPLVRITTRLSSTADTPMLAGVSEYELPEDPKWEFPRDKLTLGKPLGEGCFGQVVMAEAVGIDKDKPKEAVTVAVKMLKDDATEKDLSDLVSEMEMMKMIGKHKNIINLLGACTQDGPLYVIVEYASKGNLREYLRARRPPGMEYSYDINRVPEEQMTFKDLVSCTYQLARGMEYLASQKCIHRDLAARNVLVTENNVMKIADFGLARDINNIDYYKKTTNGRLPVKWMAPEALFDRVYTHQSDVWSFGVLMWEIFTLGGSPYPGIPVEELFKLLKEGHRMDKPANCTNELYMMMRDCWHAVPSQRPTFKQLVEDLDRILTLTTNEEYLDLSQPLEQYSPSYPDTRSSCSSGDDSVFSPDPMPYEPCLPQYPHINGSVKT

T2 sequence (P11362 22-822): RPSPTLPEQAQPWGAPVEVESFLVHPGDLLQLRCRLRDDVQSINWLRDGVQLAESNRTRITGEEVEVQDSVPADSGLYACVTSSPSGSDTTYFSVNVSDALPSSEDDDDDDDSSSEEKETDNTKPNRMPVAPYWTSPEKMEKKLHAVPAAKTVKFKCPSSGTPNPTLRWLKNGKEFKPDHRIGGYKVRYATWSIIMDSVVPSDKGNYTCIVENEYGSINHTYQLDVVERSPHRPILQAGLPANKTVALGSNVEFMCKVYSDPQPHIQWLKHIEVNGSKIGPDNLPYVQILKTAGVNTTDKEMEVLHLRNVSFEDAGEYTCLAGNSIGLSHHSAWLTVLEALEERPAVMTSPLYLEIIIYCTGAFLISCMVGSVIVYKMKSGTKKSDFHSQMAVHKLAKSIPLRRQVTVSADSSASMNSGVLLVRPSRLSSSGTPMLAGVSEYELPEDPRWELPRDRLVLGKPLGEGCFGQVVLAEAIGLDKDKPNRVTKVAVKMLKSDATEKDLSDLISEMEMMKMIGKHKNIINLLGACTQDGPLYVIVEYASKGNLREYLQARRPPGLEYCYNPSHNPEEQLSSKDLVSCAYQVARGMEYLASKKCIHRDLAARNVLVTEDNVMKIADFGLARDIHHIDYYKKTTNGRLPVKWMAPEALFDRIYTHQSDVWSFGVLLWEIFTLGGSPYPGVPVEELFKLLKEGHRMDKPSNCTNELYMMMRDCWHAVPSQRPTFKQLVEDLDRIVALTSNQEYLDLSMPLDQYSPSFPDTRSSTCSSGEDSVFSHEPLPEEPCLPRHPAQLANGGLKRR
T1 sequence (P22607 23-806): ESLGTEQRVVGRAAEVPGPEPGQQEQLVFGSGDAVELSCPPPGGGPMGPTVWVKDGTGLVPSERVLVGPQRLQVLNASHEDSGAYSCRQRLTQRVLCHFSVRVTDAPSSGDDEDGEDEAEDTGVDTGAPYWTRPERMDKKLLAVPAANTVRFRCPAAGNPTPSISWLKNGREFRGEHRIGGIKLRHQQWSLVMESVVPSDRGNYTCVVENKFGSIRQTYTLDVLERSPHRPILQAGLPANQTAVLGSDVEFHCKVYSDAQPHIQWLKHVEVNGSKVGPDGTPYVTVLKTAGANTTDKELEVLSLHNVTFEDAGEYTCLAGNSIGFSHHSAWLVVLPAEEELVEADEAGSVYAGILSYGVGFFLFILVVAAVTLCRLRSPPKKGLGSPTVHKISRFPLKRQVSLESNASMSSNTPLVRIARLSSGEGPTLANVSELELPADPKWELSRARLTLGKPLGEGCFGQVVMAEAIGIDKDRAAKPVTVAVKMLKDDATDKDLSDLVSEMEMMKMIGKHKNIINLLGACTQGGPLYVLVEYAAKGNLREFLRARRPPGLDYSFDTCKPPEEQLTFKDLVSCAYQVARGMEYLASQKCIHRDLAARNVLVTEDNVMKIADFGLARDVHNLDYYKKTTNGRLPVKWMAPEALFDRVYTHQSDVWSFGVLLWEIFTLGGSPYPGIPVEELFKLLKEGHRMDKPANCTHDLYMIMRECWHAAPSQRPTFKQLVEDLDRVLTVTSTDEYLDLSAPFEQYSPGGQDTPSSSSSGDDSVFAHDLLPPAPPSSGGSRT

Row | Compound | IC50 ([2]; Homo sapiens, SNU-16, 72 h) | IC50 [4] | IC50 ([2]; 72 h, read-out: Cell SNU-16 IC50) | Selectivity FGFR3/FGFR2 [1] | Selectivity FGFR1/FGFR2 [3]
1 | C=CC(=O)Nc1ccc(-c2c(-c3ccc(C(=O)NC4CC4)c(OC)c3)c3c(N)ncc(C#N)c3n2CCF)cc1 [Compound 236, 4-(2-(4-acrylamidophenyl)-4-amino-7-cyano-1-(2-fluoroethyl)-1H-pyrrolo[3,2-c]pyridin-3-yl)-N-cyclopropyl-2-methoxybenzamide] | ≤ 10 nM | < 5 nM |  | A (Selectivity of FGFR3/FGFR2 less than 150 but greater than or equal to 100) | A+ (Selectivity of FGFR1/FGFR2 greater or equal to 500)
2 | C=CC(=O)Nc1ccc(-c2c(-c3ccc(NC(=O)C4CC4)c(OC)c3)c3c(N)ncc(C#N)c3n2C)cc1 [Compound 237] | ≤ 10 nM | 5 to 10 nM |  | A+ (Selectivity of FGFR3/FGFR2 greater or equal to 150) | B (Selectivity of FGFR1/FGFR2 less than 300 but greater than or equal to 200)
3 | C=CC(=O)Nc1ccc(-c2[nH]c3c(C#N)cnc(N)c3c2-c2ccc(C(=O)NCC(F)(F)F)c(OC)c2)cc1 [Compound 248] | ≤ 10 nM | < 5 nM |  | A+ (Selectivity of FGFR3/FGFR2 greater or equal to 150) | C (Selectivity of FGFR1/FGFR2 less than 200 but greater than or equal to 100)
4 | C=C(F)C(=O)Nc1ccc(-c2nn3ncnc(N)c3c2-c2ccc(C(=O)NC3CC(F)C3)c(OC)c2)c(F)c1 (centres unmarked) [Compound 249] | ≤ 10 nM | < 5 nM |  | A+ (Selectivity of FGFR3/FGFR2 greater or equal to 150) | C (Selectivity of FGFR1/FGFR2 less than 200 but greater than or equal to 100)
5 | C=C(F)C(=O)Nc1ccc(-c2[nH]c3c(C#N)cnc(N)c3c2-c2ccc(C(=O)NC3CC3)c(OC)c2)c(F)c1 [Compound 267, 4-(4-amino-7-cyano-2-(2-fluoro-4-(2-fluoroacrylamido)phe-nyl)-1H-pyrrolo[3,2-c]pyridin-3-yl)-N-cyclopropyl-2-methoxybenzamide] | ≤ 10 nM | < 5 nM |  | A+ (Selectivity of FGFR3/FGFR2 greater or equal to 150) | B (Selectivity of FGFR1/FGFR2 less than 300 but greater than or equal to 200)
6 | C=C(F)C(=O)Nc1ccc(-c2nn3ncnc(N)c3c2-c2ccc(C(=O)NC3CC3(F)F)c(OC)c2)c(F)c1 (centres unmarked) [Compound 271] | ≤ 10 nM | < 5 nM |  | B (Selectivity of FGFR3/FGFR2 less than 100 but greater than or equal to 25) | C (Selectivity of FGFR1/FGFR2 less than 200 but greater than or equal to 100)
7 | C=C(F)C(=O)Nc1ccc(-c2nn3ncnc(N)c3c2-c2ccc(C(=O)NCC(F)F)c(OC)c2)c(F)c1 [Compound 289] | ≤ 10 nM | > 10 nM |  | B (Selectivity of FGFR3/FGFR2 less than 100 but greater than or equal to 25) | C (Selectivity of FGFR1/FGFR2 less than 200 but greater than or equal to 100)
8 | C=CC(=O)Nc1ccc(-c2c(-c3ccc(C(=O)NCC(F)(F)F)c(OC)c3)c3c(N)ncc(C#N)c3n2CCOC)cc1 [Compound 318, 4-(2-(4-acrylamidophenyl)-4-amino-7-cyano-1-(2-methoxyethyl)-1H-pyrrolo[3,2-c]pyridin-3-yl)-2-methoxy-N-(2,2,2-trifluoroethyl)benzamide] | ≤ 10 nM | < 5 nM |  | A (Selectivity of FGFR3/FGFR2 less than 150 but greater than or equal to 100) | C (Selectivity of FGFR1/FGFR2 less than 200 but greater than or equal to 100)
9 | C=C(F)C(=O)Nc1ccc(-c2[nH]c3c(C#N)cnc(N)c3c2-c2ccc(C(=O)NC3CC(F)(F)C3)c(OC)c2)cc1 [Compound 319, 4-(4-amino-7-cyano-2-(4-(2-fluoroacrylamido)phe-nyl)-1H-pyrrolo[3,2-c]pyridin-3-yl)-N-(3,3-difluorocyclobutyl)-2-methoxybenzamide] | ≤ 10 nM | < 5 nM |  | A+ (Selectivity of FGFR3/FGFR2 greater or equal to 150) | A (Selectivity of FGFR1/FGFR2 less than 500 but greater than or equal to 300)
10 | C=C(F)C(=O)Nc1ccc(-c2[nH]c3c(C#N)cnc(N)c3c2-c2ccc(C(=O)NC3(C)CC3)c(OC)c2)cc1 [Compound 321, 4-(4-amino-7-cyano-2-(4-(2-fluoroacrylamido)phe-ny1)-1H-pyrrolo[3,2-c]pyridin-3-yl)-2-methoxy-N-(1-methylcyclopropyl)benzamide] | ≤ 10 nM | 5 to 10 nM |  | A+ (Selectivity of FGFR3/FGFR2 greater or equal to 150) | C (Selectivity of FGFR1/FGFR2 less than 200 but greater than or equal to 100)
11 | C=CC(=O)Nc1ccc(-c2nn3ncnc(N)c3c2-c2ccc(NC(=O)C3CC3(F)F)c(OC)c2)cc1 (centres unmarked) [Compound 339, N-(4-(6-(4-acrylamidophenyl)-4-aminopyrazolo[5,1-f][1,2,4]triazin-5-yl)-2-methoxyphenyl)-2,2-difluorocyclopropane-1-carboxamide] | ≤ 10 nM | > 10 nM |  | B (Selectivity of FGFR3/FGFR2 less than 100 but greater than or equal to 25) | C (Selectivity of FGFR1/FGFR2 less than 200 but greater than or equal to 100)

Second part, led by results:

Row | IC50 ([2]; Homo sapiens, SNU-16, 72 h) | IC50 [4] | IC50 ([2]; 72 h, read-out: Cell SNU-16 IC50) | Compound | Selectivity FGFR3/FGFR2 [1] | Selectivity FGFR1/FGFR2 [3]
12 | ≤ 10 nM | > 10 nM |  | C=CC(=O)Nc1ccc(-c2nn3ncnc(N)c3c2-c2ccc(NC(=O)C3CC(F)(F)C3)c(OC)c2)cc1 [Compound 340, N-(4-(6-(4-acrylamidophenyl)-4-aminopyrazolo[5,1-f][1,2,4]triazin-5-yl)-2-methoxyphenyl)-3,3-difluorocyclobutane-1-carboxamide] | A (Selectivity of FGFR3/FGFR2 less than 150 but greater than or equal to 100) | B (Selectivity of FGFR1/FGFR2 less than 300 but greater than or equal to 200)
13 | ≤ 10 nM | < 5 nM |  | C=CC(=O)Nc1ccc(-c2c(-c3ccc(C(=O)NC4CC4)c(OC)c3)c3c(N)ncc(C#N)c3n2CC(F)(F)F)cc1 [Compound 342] | A+ (Selectivity of FGFR3/FGFR2 greater or equal to 150) | B (Selectivity of FGFR1/FGFR2 less than 300 but greater than or equal to 200)
14 | ≤ 10 nM | < 5 nM |  | C=C(F)C(=O)Nc1ccc(-c2c(-c3ccc(Oc4nccc(C)n4)c(F)c3)c3c(N)ncc(C#N)c3n2C)cc1 [Compound 344, N-(4-(4-amino-7-cyano-3-(3-fluoro-4-((4-methylpyrimidin-2-yl)oxy)phenyl)-1-methyl-1H-pyrrolo[3,2-c]pyridin-2-yl)phenyl)-2-fluoroacrylamide] | A (Selectivity of FGFR3/FGFR2 less than 150 but greater than or equal to 100) | A+ (Selectivity of FGFR1/FGFR2 greater or equal to 500)
15 | ≤ 10 nM | < 5 nM |  | C=CC(=O)Nc1ccc(-c2c(-c3ccc(C(=O)NCC(F)(F)F)c(OC)c3)c3c(N)ncc(C#N)c3n2C2CC2)cc1 [Compound 351] | B (Selectivity of FGFR3/FGFR2 less than 100 but greater than or equal to 25) | A+ (Selectivity of FGFR1/FGFR2 greater or equal to 500)
16 | ≤ 10 nM | < 5 nM |  | [2H]C([2H])([2H])n1c(-c2ccc(NC(=O)C=C)cc2)c(-c2ccc(C(=O)NCC(F)(F)F)c(OC)c2)c2c(N)ncc(C#N)c21 [Compound 355, 4-(2-(4-acrylamidophenyl)-4-amino-7-cyano-1-(methyl-d3)-1H-pyrrolo[3,2-c]pyridin-3-yl)-2-methoxy-N-(2,2,2-trifluoroethyl)benzamide] | A+ (Selectivity of FGFR3/FGFR2 greater or equal to 150) | A (Selectivity of FGFR1/FGFR2 less than 500 but greater than or equal to 300)
17 | ≤ 10 nM | < 5 nM |  | C=C(F)C(=O)Nc1ccc(-c2nn3ncnc(N)c3c2-c2ccc(C(=O)NC3(C(F)(F)F)CC3)c(OC)c2)c(F)c1 [Compound 356] | A (Selectivity of FGFR3/FGFR2 less than 150 but greater than or equal to 100) | A (Selectivity of FGFR1/FGFR2 less than 500 but greater than or equal to 300)
18 | ≤ 10 nM | < 5 nM |  | C=C(F)C(=O)Nc1ccc(-c2nn3ncnc(N)c3c2-c2ccc(C(=O)NC34CC(C3)C4)c(OC)c2)c(F)c1 [Compound 357, 4-(4-amino-6-(2-fluoro-4-(2-fluoroacryl amido)phenyl)pyrazolo[5,1-f][1,2,4]triazin-5-yl)-N-(bicyclo[1.1.1]pentan-1-yl)-2-methoxybenzamide] | A+ (Selectivity of FGFR3/FGFR2 greater or equal to 150) | A (Selectivity of FGFR1/FGFR2 less than 500 but greater than or equal to 300)
19 |  | < 5 nM | ≤ 10 nM | C=C(F)C(=O)Nc1ccc(-c2nn3ncnc(N)c3c2-c2ccc(C(=O)NCC3(C(F)(F)F)CC3)c(OC)c2)c(F)c1 [Compound 358, 4-(4-amino-6-(2-fluoro-4-(2-fluoroacrylamido)phenyl)pyrazolo[5,1-f] [1,2,4]triazin-5-yl)-2-methoxy-N-((1-(trifluoromethyl)cyclo-propyl)methyl) benzamide] | A (Selectivity of FGFR3/FGFR2 less than 150 but greater than or equal to 100) | A+ (Selectivity of FGFR1/FGFR2 greater or equal to 500)
20 | ≤ 10 nM | < 5 nM |  | C=C(F)C(=O)Nc1ccc(-c2nn3ncnc(N)c3c2-c2ccc(C(=O)NCC3(C(F)(F)F)CC3)c(OC)c2)c(F)c1 [Compound 361] | A (Selectivity of FGFR3/FGFR2 less than 150 but greater than or equal to 100) | A (Selectivity of FGFR1/FGFR2 less than 500 but greater than or equal to 300)
